How the values were obtained:
Assay type in all cases: physicochemical
[1] = Evaluation of absorption spectrum (maximal absorption wavelength in chloroform solution); conditions: for Near infrared absorbing property: grade of λmax in chloroform solution; for λmax (maximal absorption wavelength): chloroform solution, 3.0×10^−5 mol/L, 1 mm quartz cell
Protocol: The specific compound is diluted with chloroform to a concentration of […], and an absorbance of the obtained sample solution is measured with a spectrophotometer (UV-3600 Plus, manufactured by Shimadzu Corporation) using a 1 mm quartz cell. A maximal absorption wavelength (Amax) is measured from an absorption spectrum of the sample solution.
For each of Exemplary Compounds shown in Tables 1 and 2, a sample solution was prepared by diluting the compound with chloroform to a concentration of 3.0×10^−5 mol/L, and near infrared absorbability was evaluated.
For each sample solution, an absorbance was measured in a 1 mm quartz cell using a spectrophotometer (UV-3600 Plus, manufactured by Shimadzu Corporation).
A maximal absorption wavelength (Amax) was measured from the absorption spectrum of each sample solution. The results are shown in Tables 1 and 2, and the wavelength of Amax was evaluated according to the following standard.
• A: Amax was 1,150 nm or more. • B: Amax was less than 1,150 nm.

[2] = Evaluation of solubility in methyl ethyl ketone (MEK); conditions: stirred at room temperature for 30 minutes
Protocol: For each of Exemplary Compounds shown in Tables 1 and 2, a predetermined amount of the compound was added to a solvent of methyl ethyl ketone (MEK), and solubility was evaluated according to the following standard by stirring the mixture at room temperature for 30 minutes.
• A: 1 g or more of the compound was stably dissolved in 300 g of MEK. • B: 1 g was not dissolved in 300 g of MEK. • X: decomposition was observed by measuring the absorption spectrum after the dissolution.

[3] = Evaluation of heat stability of polystyrene resin film (hot plate 180° C., 5 minutes); conditions: polystyrene resin film on glass, hot plate 180° C. for 5 minutes, absorbance reduction rate at λmax
Protocol: 30 mg of each of Exemplary Compounds and the comparative compounds described in the tables was dissolved in 8.9 g of methyl ethyl ketone and 1.1 g of a polystyrene resin (manufactured by Sigma-Aldrich Co. LLC) to prepare a resin composition.
The obtained resin composition was spin-coated on a glass substrate to form a coating film, and the obtained coating film was dried at 60° C. for 2 minutes to produce a resin film. […]
• A: absorbance reduction rate of Amax was less than 5%. • B: absorbance reduction rate of Amax was 5% or more and less than 10%. • C: absorbance reduction rate of Amax was 10% or more and less than 50%. • D: absorbance reduction rate of Amax was 50% or more. • X: solubility was insufficient, so that the film cannot be produced, which was not evaluable.

SMILES | Near infrared absorbing property [1] | λmax (maximal absorption wavelength) [1] | Solubility in solvent [2] | Heat stability of resin composition [3]
Cc1ccc(N(c2ccc(C)cc2)c2ccc([N+](=C3C=CC(=[N+](c4ccc(N(c5ccc(C)cc5)c5ccc(C)cc5)cc4)c4ccc(N(c5ccc(C)cc5)c5ccc(C)cc5)cc4)C=C3)c3ccc(N(c4ccc(C)cc4)c4ccc(C)cc4)cc3)cc2)cc1 [A-1] | A (Amax was 1,150 nm or more) |  | A (1 g or more of the compound was stably dissolved in 300 g of MEK) | A (absorbance reduction rate of Amax was less than 5%)
Cc1cc(C)c(N(c2ccc([N+](=C3C=CC(=[N+](c4ccc(N(c5c(C)cc(C)cc5C)c5c(C)cc(C)cc5C)cc4)c4ccc(N(c5c(C)cc(C)cc5C)c5c(C)cc(C)cc5C)cc4)C=C3)c3ccc(N(c4c(C)cc(C)cc4C)c4c(C)cc(C)cc4C)cc3)cc2)c2c(C)cc(C)cc2C)c(C)c1 [A-3] | A (Amax was 1,150 nm or more) |  | A (1 g or more of the compound was stably dissolved in 300 g of MEK) | A (absorbance reduction rate of Amax was less than 5%)
COc1ccc(N(c2ccc(OC)cc2)c2ccc([N+](=C3C=CC(=[N+](c4ccc(N(c5ccc(OC)cc5)c5ccc(OC)cc5)cc4)c4ccc(N(c5ccc(OC)cc5)c5ccc(OC)cc5)cc4)C=C3)c3ccc(N(c4ccc(OC)cc4)c4ccc(OC)cc4)cc3)cc2)cc1.[O-][Cl+3]([O-])([O-])[O-].[O-][Cl+3]([O-])([O-])[O-] [A-6] | A (Amax was 1,150 nm or more) | 1248 nm | A (1 g or more of the compound was stably dissolved in 300 g of MEK) | A (absorbance reduction rate of Amax was less than 5%)

More lines, main results first:

Near infrared absorbing property [1] | λmax (maximal absorption wavelength) [1] | SMILES | Solubility in solvent [2] | Heat stability of resin composition [3]
A (Amax was 1,150 nm or more) | 1162 nm | FC(F)(F)c1ccc(N(c2ccc([N+](=C3C=CC(=[N+](c4ccc(N(c5ccc(C(F)(F)F)cc5)c5ccc(C(F)(F)F)cc5)cc4)c4ccc(N(c5ccc(C(F)(F)F)cc5)c5ccc(C(F)(F)F)cc5)cc4)C=C3)c3ccc(N(c4ccc(C(F)(F)F)cc4)c4ccc(C(F)(F)F)cc4)cc3)cc2)c2ccc(C(F)(F)F)cc2)cc1.[O-][Cl+3]([O-])([O-])[O-].[O-][Cl+3]([O-])([O-])[O-] [A-7] | A (1 g or more of the compound was stably dissolved in 300 g of MEK) | A (absorbance reduction rate of Amax was less than 5%)
A (Amax was 1,150 nm or more) | 1210 nm | CCCCc1ccc(N(c2ccc(CCCC)cc2)c2ccc([N+](=C3C=CC(=[N+](c4ccc(N(c5ccc(CCCC)cc5)c5ccc(CCCC)cc5)cc4)c4ccc(N(c5ccc(CCCC)cc5)c5ccc(CCCC)cc5)cc4)C=C3)c3ccc(N(c4ccc(CCCC)cc4)c4ccc(CCCC)cc4)cc3)cc2)cc1.[O-][Cl+3]([O-])([O-])[O-].[O-][Cl+3]([O-])([O-])[O-] [A-8] | A (1 g or more of the compound was stably dissolved in 300 g of MEK) | A (absorbance reduction rate of Amax was less than 5%)
A (Amax was 1,150 nm or more) | 1170 nm | N#Cc1ccc(N(c2ccc(C#N)cc2)c2ccc([N+](=C3C=CC(=[N+](c4ccc(N(c5ccc(C#N)cc5)c5ccc(C#N)cc5)cc4)c4ccc(N(c5ccc(C#N)cc5)c5ccc(C#N)cc5)cc4)C=C3)c3ccc(N(c4ccc(C#N)cc4)c4ccc(C#N)cc4)cc3)cc2)cc1.[O-][Cl+3]([O-])([O-])[O-].[O-][Cl+3]([O-])([O-])[O-] [A-9] | A (1 g or more of the compound was stably dissolved in 300 g of MEK) | A (absorbance reduction rate of Amax was less than 5%)

Reference: US20260022246A1, “COLORING AGENT COMPOSITION, FILM, OPTICAL FILTER, AND NEAR INFRARED ABSORBING COMPOUND” (FUJIFILM Corporation, priority 2023, published 2026)
